In paper PMC9006213, “Multifunctional, Multivalent PIC Polymer Scaffolds for Targeting Antigen-Specific, Autoreactive B Cells” (ACS Biomaterials Science & Engineering, 2022):

Columns and labels:
[1] = tested on: ACPA-expressing B cells in peripheral blood of RA patients; assay: Identification and immunophenotyping of primary ACPA-expressing B cells in peripheral blood of RA patients; format: cell-based, human; conditions: median; n = 5; PICs and SA tetramer
Description: Having determined the specificity of CCP-PIC-AF647 and its ability to detect small subpopulations of B cells, we used the combination of PICs to identify and characterize the primary ACPA-expressing B cells in the peripheral blood of five RA patients. […] The median frequency was determined at approximately 0.007% cells out of total B cells (Figure 5A,B). To assess whether the characteristics of the patient’s ACPA-expressing B cells were consistent with previous data, we also examined various B-cell subset-defining markers such as CD20, CD27, IgG-class B-cell receptors, and the activation surface marker CD80 (Figure 5B).
Each dot represents one patient sample. Connected dots depict data from individual patient samples. Statistical differences between groups were determined using the Wilcoxon test. (ns, p > 0.05).
To identify and characterize ACPA-expressing B cells in RA blood, PBMC were isolated from peripheral blood of RA donors as above.
For stimulation experiments, ACPA-expressing Ramos B cells were used. Ramos cells were transduced with ACPA-encoding lentiviral vectors 8. Ramos cells were cultured in RPMI 1640 (Thermofisher) supplemented with 8% FCS, 100 U/ml PS, 2 mM GlutaMax and 10 mM HEPES).
To determine which ratio of CCP and fluorophore in PIC to use, two ratios of CCP-AF647 were tested, i.e. 10:1 and 2:1. […]

B-cell compartments = conditions: clinical use; cited from earlier work
Excerpt: These autoreactive MBCs likely exert pathogenic effector functions through the co-stimulation of T cells, the production of pro-inflammatory cytokines, and the recruitment of neutrophils to sites of the local inflammation.[1] The involvement of these cells in the inflammatory disease process is addi ...

[2] = tested on: patient-derived ACPA and immortalized ACPA-expressing B cells; conditions: cited from earlier work
Excerpt: To study the application of PICs for the detection of ACPA-expressing B cells, we prepared a set of fluorescently labeled PICs containing CCP and arginine-containing control peptides (CArgP, Figure 1B), as well as tetrameric CCP-SA and CArgP-SA containing the same fluorophores (Figure 1C).[15] […] In CArgP, the citrulline residue that is essential for recognition by ACPA is replaced by an arginine. Besides the ...

For polyisocyanopeptides [PICs], the “ACPA-expressing B cells positive for memory B cell markers CD20 and CD27” value [1] was 50%.
In the case of “Rituximab: broadly B-cell depleting agent approved for clinical use”, the “depletion of B-cell compartments” value (B-cell compartments) is given as “depletes the naïve and MBC compartments but leaves the compartment of antibody-secreting cells largely intact”.
In the case of cyclic citrullinated peptide [CCP], the “recognition by ACPA and ACPA-expressing B cells” value [2] is given as “recognized by both patient-derived ACPA and immortalized ACPA-expressing B cells”.
